We go through 26 compounds from patent publication US9388164B2, “Methods of using pyruvate kinase activators” (AGIOS PHARMACEUTICALS, INC, priority 2011, dated 2016).

Common to all, as to format: biochemical
Experiment [1] concerns the target PKR T384W (Homo sapiens, UniProt P30613). In words: PKR T384W Single Point Percent Activation Assay. As to conditions: compound at 1 μM. The method, then: PKR T384W Single Point Percent Activation Assay
A compound described herein was diluted with DMSO and tested at 1 μM concentration. The enzyme was diluted in 1× Buffer: (100 mM KCl, 50 mM Tris 7.5, 5 mM MgCl2, 1 mM DTT, 0.03% BSA). 2 μL of compound solution was first added into wells, and then 180 μL enzyme solution was added. Assays were assembled except for ADP, and plates were stored for 60 minutes at RT. 20 μL ADP was added to start the assay and assay output was evaluated using OD340 at SpectraMax. The assay was run at room temperature.
PKR T384W soluble (300 ng/well), Tris pH 7.5 (50 mM), KCl (100 mM), MgCl2 (5 mM), ADP (0.08 mM), PEP (0.23 mM), NADH (180 μM), LDH (0.5 units, Sigma 59023), DTT (1 mM) and BSA (0.03%).

Experiment [2] has as its target PKR wt (Homo sapiens, UniProt P30613). In words: PKR WT Single Point Percent Activation Assay. As to conditions: compound at 1 μM. The method, then: PKR WT Single Point Percent Activation Assay
(§1) A compound described herein was diluted with DMSO and tested at 1 μM concentration. The enzyme was diluted in 1× Buffer: (100 mM KCl, 50 mM Tris 7.5, 5 mM MgCl2, 1 mM DTT, 0.03% BSA). 2 μL of compound solution was first added into wells, and then 180 μL of enzyme solution was added. Assays were assembled except for ADP, and plates were stored for 60 minutes at RT. 20 μL ADP was added to start the assay and assay output was evaluated using OD340 at SpectraMax. The assay was run at room temperature.
PKR wt (100 ng/well), Tris pH 7.5 (50 mM), KCl (100 mM), MgCl2 (5 mM), ADP (0.48 mM), PEP (0.15 mM), NADH (180 μM), LDH (0.5 units, Sigma 59023), DTT (1 mM) and BSA (0.03%).

Experiment [3] deals with PKR R510Q (Homo sapiens, UniProt P30613, R510Q). Briefly: PKR R510Q Single Point Percent Activation Assay. Conditions: compound at 1 μM; read-out: % Act. R510Q. The method, then: PKR R510Q Single Point Percent Activation Assay
as §1
PKR R510Q (40 ng/well), Tris pH 7.5 (50 mM), KCl (100 mM), MgCl2 (5 mM), ADP (0.2 mM), PEP (0.11 mM), NADH (180 μM), LDH (0.5 units, Sigma 59023), DTT (1 mM) and BSA (0.03%).

The target of experiment [4] is PKR R532W (Homo sapiens, UniProt P30613, R532W). In words: PKR R532W Single Point Percent Activation Assay. As to conditions: compound at 1 μM; for activation at 1 µM: read-out: % Act. R532W. Here is the method: PKR R532W Single Point Percent Activation Assay
as §1
PKR R532W (100 ng/well), Tris pH 7.5 (50 mM), KCl (100 mM), MgCl2 (5 mM), ADP (0.36 mM), PEP (0.1 mM), NADH (180 μM), LDH (0.5 units, Sigma 59023), DTT (1 mM) and BSA (0.03%).

Chain of PKR R532W (P30613 whole entry R532W): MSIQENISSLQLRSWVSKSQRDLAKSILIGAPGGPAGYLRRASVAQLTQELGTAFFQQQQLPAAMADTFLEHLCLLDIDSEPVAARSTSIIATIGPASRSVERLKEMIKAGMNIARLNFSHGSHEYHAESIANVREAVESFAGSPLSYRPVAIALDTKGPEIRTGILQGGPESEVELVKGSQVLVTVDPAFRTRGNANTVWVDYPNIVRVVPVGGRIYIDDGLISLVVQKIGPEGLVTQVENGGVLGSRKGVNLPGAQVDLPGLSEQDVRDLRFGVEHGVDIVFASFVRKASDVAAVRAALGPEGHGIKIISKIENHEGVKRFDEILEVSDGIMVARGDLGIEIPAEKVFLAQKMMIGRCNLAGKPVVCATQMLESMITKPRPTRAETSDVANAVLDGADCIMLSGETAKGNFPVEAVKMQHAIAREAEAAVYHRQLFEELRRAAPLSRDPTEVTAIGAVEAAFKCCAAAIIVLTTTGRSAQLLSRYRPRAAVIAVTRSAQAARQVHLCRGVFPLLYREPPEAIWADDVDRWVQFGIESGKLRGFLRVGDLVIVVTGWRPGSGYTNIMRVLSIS
Chain of PKR T384W (P30613 whole entry T384M): as the sequence (P30613 whole entry R532W) above, with T384M, W532R counted along it
Chain of PKR wt (P30613 whole entry): as the sequence (P30613 whole entry R532W) above, with W532R counted along it
Chain of PKR R510Q (P30613 whole entry R510Q): as the sequence (P30613 whole entry R532W) above, with R510Q, W532R counted along it

With `Cc1cc(C(=O)N2CC(OCc3ccccc3)C2)ccc1NS(=O)(=O)c1cccc2cccnc12`, the “% Act. T384W” value in experiment [1] is given as “B (a % activation at 1 μM of from 101 to 500)”. Further, the activation at 1 µM was 101 to 500% in experiment [2], 101 to 500% in experiment [3] and 1 to 100% in experiment [4].
As for `O=C(NC1CN(C(=O)c2ccc(NS(=O)(=O)c3cccc4cccnc34)c(F)c2)C1)c1ccccn1`, the “% Act. T384W” value in experiment [1] is listed as “B (a % activation at 1 μM of from 101 to 500)”. Besides, the activation at 1 µM lay within 101 to 500% in experiment [2], 101 to 500% in experiment [3] and 1 to 100% in experiment [4].
With `CN(c1ccccc1)C1CN(C(=O)c2ccc(NS(=O)(=O)c3cccc4cccnc34)cc2)C1`, the “% Act. T384W” value in experiment [1] is “B (a % activation at 1 μM of from 101 to 500)”. In addition, the activation at 1 µM in experiment [2], in experiment [3] and in experiment [4] was 101 to 500% throughout.
For `O=C(Cc1ccccc1)OC1CN(C(=O)c2ccc(NS(=O)(=O)c3cccc4cccnc34)cc2)C1`, the “% Act. T384W” value in experiment [1] was “B (a % activation at 1 μM of from 101 to 500)”. Besides, the activation at 1 µM in experiment [2] lay within 101 to 500%; in experiment [3] it was 101 to 500%; in experiment [4] it was 1 to 100%.
Turning to `O=C(OC1CN(C(=O)c2ccc(NS(=O)(=O)c3cccc4cccnc34)c(F)c2)C1)c1ccccn1`, the “% Act. T384W” value in experiment [1] is recorded as “B (a % activation at 1 μM of from 101 to 500)”. For the same compound, the activation at 1 µM in experiment [2], in experiment [3] and in experiment [4] was 101 to 500% throughout.
Turning to `CC1(O)CN(C(=O)c2ccc(NS(=O)(=O)c3cccc4cccnc34)c(F)c2)C1`, the “% Act. T384W” value in experiment [1] was “B (a % activation at 1 μM of from 101 to 500)”. Further, the figures for the activation at 1 µM in experiment [2], in experiment [3] and in experiment [4] were 101 to 500%, 101 to 500% and 1 to 100%, respectively.
Regarding `CC1(O)CN(C(=O)c2ccc(NS(=O)(=O)c3cccc4cccnc34)cc2)C1`, in experiment [1], the “% Act. T384W” value is given as “B (a % activation at 1 μM of from 101 to 500)”. Also, the activation at 1 µM in experiment [2] lay within 101 to 500%; in experiment [3], 101 to 500%; in experiment [4], 1 to 100%.
Regarding `COc1cc(NS(=O)(=O)c2cccc3cccnc23)ccc1C(=O)N1CC(C)(O)C1`, in experiment [1], the “% Act. T384W” value is reported as “B (a % activation at 1 μM of from 101 to 500)”. Besides, the activation at 1 µM in experiment [2] lay in the range of 101 to 500%; in experiment [3], 101 to 500%; in experiment [4], 1 to 100%.
As to `COc1ccccc1OC1CN(C(=O)c2ccc(NS(=O)(=O)c3cccc4cccnc34)cc2)C1`, in experiment [1], the “% Act. T384W” value is on record as “B (a % activation at 1 μM of from 101 to 500)”. The results for the activation at 1 µM in experiment [2], in experiment [3] and in experiment [4] were 101 to 500%, 101 to 500% and 1 to 100%, respectively.
Consider `COc1cc(NS(=O)(=O)c2cccc3cccnc23)ccc1C(=O)N1CC(O)(Cc2ccccc2)C1`, for which the “% Act. T384W” value in experiment [1] is “B (a % activation at 1 μM of from 101 to 500)”. Further, the activation at 1 µM in experiment [2], in experiment [3] and in experiment [4] was 101 to 500% in each case.
In the case of `Cc1cc(C(=O)N2CC(O)(Cc3ccccc3)C2)ccc1NS(=O)(=O)c1cccc2cccnc12`, in experiment [1], the “% Act. T384W” value is given as “B (a % activation at 1 μM of from 101 to 500)”. The values for the activation at 1 µM in experiment [2], in experiment [3] and in experiment [4] were 101 to 500%, 101 to 500% and 1 to 100%, respectively.
As for `Cc1cc(C(=O)N2CC(OC(=O)NC(C)C)C2)ccc1NS(=O)(=O)c1cccc2cccnc12`, the “% Act. T384W” value in experiment [1] was “A (a % activation at 1 μM of from 1 to 100)”. The activation at 1 µM in experiment [2], in experiment [3] and in experiment [4] was 101 to 500% throughout.
As to `COc1cc(NS(=O)(=O)c2cccc3cccnc23)ccc1C(=O)N1CC(OC(=O)NC(C)C)C1`, the “% Act. T384W” value in experiment [1] was “B (a % activation at 1 μM of from 101 to 500)”. For the same compound, the activation at 1 µM in experiment [2], in experiment [3] and in experiment [4] was 101 to 500% in each case.
`CC(C)NC(=O)OC1CN(C(=O)c2ccc(NS(=O)(=O)c3cccc4cccnc34)c(F)c2)C1`: in experiment [1], the “% Act. T384W” value is “B (a % activation at 1 μM of from 101 to 500)”. Further, the activation at 1 µM lay within 101 to 500% in experiment [2], 101 to 500% in experiment [3] and 1 to 100% in experiment [4].
Regarding `CC(C)NC(=O)OC1CN(C(=O)c2ccc(NS(=O)(=O)c3cccc4cccnc34)cc2)C1`, the “% Act. T384W” value in experiment [1] was “B (a % activation at 1 μM of from 101 to 500)”. The activation at 1 µM in experiment [2], in experiment [3] and in experiment [4] was 101 to 500% in each case.
Consider `Cc1cc(C(=O)N2CC(O)(c3ccccc3)C2)ccc1NS(=O)(=O)c1cccc2cccnc12`, for which, in experiment [1], the “% Act. T384W” value was “B (a % activation at 1 μM of from 101 to 500)”. Moreover, the activation at 1 µM in experiment [2], in experiment [3] and in experiment [4] was 101 to 500% throughout.
With `COc1cc(NS(=O)(=O)c2cccc3cccnc23)ccc1C(=O)N1CC(O)(c2ccccc2)C1`, the “% Act. T384W” value in experiment [1] was “B (a % activation at 1 μM of from 101 to 500)”. The activation at 1 µM in experiment [2], in experiment [3] and in experiment [4] was 101 to 500% in each case.
With `C=CCNC(=O)NC1CN(C(=O)c2ccc(NS(=O)(=O)c3cccc4cccnc34)cc2)C1`, in experiment [1], the “% Act. T384W” value is “B (a % activation at 1 μM of from 101 to 500)”. The activation at 1 µM in experiment [2], in experiment [3] and in experiment [4] was 101 to 500% each time.
As to `C=CCNC(=O)NC1CN(C(=O)c2ccc(NS(=O)(=O)c3cccc4cccnc34)c(OC)c2)C1`, the “% Act. T384W” value in experiment [1] is listed as “B (a % activation at 1 μM of from 101 to 500)”. Besides, the activation at 1 µM in experiment [2], in experiment [3] and in experiment [4] was 101 to 500% in each case.
As for `O=C(c1ccc(NS(=O)(=O)c2cccc3cccnc23)cc1)N1CC(O)C1`, in experiment [1], the “% Act. T384W” value is “B (a % activation at 1 μM of from 101 to 500)”. In addition, the activation at 1 µM in experiment [2], in experiment [3] and in experiment [4] was 101 to 500% throughout.
In the case of `Cc1cc(C(=O)N2CC(O)C2)ccc1NS(=O)(=O)c1cccc2cccnc12`, the “% Act. T384W” value in experiment [1] is given as “A (a % activation at 1 μM of from 1 to 100)”. In addition, the activation at 1 µM in experiment [2], in experiment [3] and in experiment [4] was 101 to 500% each time.
Consider `COc1cc(NS(=O)(=O)c2cccc3cccnc23)ccc1C(=O)N1CC(O)C1`, for which, in experiment [1], the “% Act. T384W” value is “A (a % activation at 1 μM of from 1 to 100)”. In addition, the activation at 1 µM in experiment [2], in experiment [3] and in experiment [4] was 101 to 500% throughout.
For the compound `Cc1cc(C(=O)N2CC(C)(O)C2)ccc1NS(=O)(=O)c1cccc2cccnc12`, in experiment [1], the “% Act. T384W” value is on record as “B (a % activation at 1 μM of from 101 to 500)”. Moreover, the activation at 1 µM in experiment [2], in experiment [3] and in experiment [4] was 101 to 500% each time.
Consider `Cc1cc(C(=O)N2CC(Nc3ccccc3)C2)ccc1NS(=O)(=O)c1cccc2cccnc12`, for which the “% Act. T384W” value in experiment [1] is given as “B (a % activation at 1 μM of from 101 to 500)”. The activation at 1 µM in experiment [2], in experiment [3] and in experiment [4] was 101 to 500% in each case.
`CN(Cc1ccccc1)C1CN(C(=O)c2ccc(NS(=O)(=O)c3cccc4cccnc34)cc2)C1`: in experiment [1], the “% Act. T384W” value is on record as “B (a % activation at 1 μM of from 101 to 500)”. Also, the activation at 1 µM in experiment [2], in experiment [3] and in experiment [4] was 101 to 500% each time.
In the case of `O=C(NC1CN(C(=O)c2ccc(NS(=O)(=O)c3cccc4cccnc34)cc2)C1)c1ccccn1` [drawing 8], the “% Act. T384W” value in experiment [1] is “B (a % activation at 1 μM of from 101 to 500)”. The activation at 1 µM in experiment [2] and in experiment [3] was 101 to 500% in each case. In addition, in experiment [4], the “% Act. R532W” value is given as “A (a % activation at 1 μM of from 1 to 100)”.
